The results in this text go back to ChEMBL document CHEMBL4049416, “Synthesis and anti-cancer activities of new sulfonamides 4-substituted-triazolyl nucleosides” (Bioorg Med Chem Lett, 2017).

The source made the active and inactive calls. The calls are words filed in the database; no cut-off is given here.

The test system of data set [1] is RCC4. Kind of data set: Anticancer activity against human RCC4 cells after 48 hrs by XTT assay. The format is functional, cell-based. Particulars: RCC4, 48 h.
For data set [2], the system named is MDA-MB-231. Briefly: Anticancer activity against human MDA-MB-231 cells after 48 hrs by XTT assay. The format is functional, cell-based. As to conditions: MDA-MB-231, 48 h.
Data set [3] is described as follows: Potency index, ratio of AICAR IC50 to compound IC50 for human RCC4 cells. The format is functional.
For data set [4], the system named is MDA-MB-231. Briefly: Potency index, ratio of AICAR IC50 to compound IC50 for human MDA-MB-231 cells. It counts as functional.
The test system of data set [5] is RCC4. Briefly: Anticancer activity against human RCC4 cells at 50 uM after 48 hrs by XTT assay. The format is functional, cell-based.
Data set [6] concerns MDA-MB-231. Kind of data set: Anticancer activity against human MDA-MB-231 cells at 50 uM after 48 hrs by XTT assay. It counts as functional, cell-based.
Data set [7] has as its system RCC4. Briefly: Induction of apoptosis in human RCC4 cells assessed as PARP cleavage at 20 uM after 48 hrs by Western blot method. It counts as functional, cell-based.
Data set [8] concerns RCC4. Kind of data set: Induction of autophagy in human RCC4 cells assessed as increase in LC3 lipidation at 20 uM after 48 hrs by Western blot method. It counts as functional, cell-based.
Data set [9] concerns RCC4. Kind of data set: Induction of autophagy in human RCC4 cells assessed as increase in LC3 cleavage at 20 uM after 48 hrs by Western blot method. It counts as functional, cell-based.
Data set [10] is described as follows: Solubility of the compound. It counts as physicochemical.
Data set [11] can be described thus: Micelle aggregation by the compound.
The subject of data set [12] is RCC4. Kind of data set: Induction of autophagy in human RCC4 cells assessed as increase in LC3 conversion at 1 mM after 48 hrs by Western blot method. The format is functional, cell-based.

Take `CS(=O)(=O)N(Cc1cn([C@@H]2O[C@H](CO)[C@@H](O[C@H]3O[C@H](CO)[C@@H](O)[C@H](O)[C@H]3O)[C@H](O)[C@H]2O)nn1)c1ccc(C#N)cc1`: the half-maximal inhibitory concentration (IC50) in the data set with RCC4 [1] and with MDA-MB-231 [2] was 250 µM throughout.
Take `CS(=O)(=O)N(Cc1cn([C@@H]2O[C@H](CO)[C@@H](O)[C@H]2O)nn1)c1ccc(C#N)cc1`: the half-maximal inhibitory concentration (IC50) was 250 µM in the data set on RCC4 [1] and greater than 250 µM with MDA-MB-231 [2].
For the compound `CC(=O)OC[C@H]1O[C@@H](O[C@H]2[C@H](OC(C)=O)[C@@H](OC(C)=O)[C@@H](n3cc(CN(c4ccc(C#N)cc4)S(C)(=O)=O)nn3)O[C@@H]2COC(C)=O)[C@H](OC(C)=O)[C@@H](OC(C)=O)[C@H]1OC(C)=O`, the half-maximal inhibitory concentration (IC50) with RCC4 [1] was determined as 50 µM; in the data set on MDA-MB-231 [2] it was 70 µM.
In the same order, the values of `CCN(CC)CCNC(=O)c1c(C)[nH]c(/C=C2\C(=O)Nc3ccc(F)cc32)c1C` [SUNITINIB] are 4 µM and 6 µM.
As to `CC(=O)OC[C@H]1O[C@@H](n2cc(CN(c3ccc(C)cc3)S(=O)(=O)c3ccccc3)nn2)[C@H](OC(C)=O)[C@@H](OC(C)=O)[C@@H]1OC(C)=O`, the half-inhibitory concentration (IC50) with RCC4 [1] is 130 µM; in the data set with MDA-MB-231 [2], 180 µM.
In the case of `COC(=O)C(C)(C)N(Cc1cn([C@@H]2O[C@H](COC(C)=O)[C@@H](OC(C)=O)[C@H]2OC(C)=O)nn1)S(C)(=O)=O`, the half-maximal inhibitory concentration (IC50) in the data set on RCC4 [1] came to 50 µM; in the data set on MDA-MB-231 [2], 240 µM.
Turning to `CC(=O)OC[C@H]1O[C@@H](n2cc(CN(c3ccccc3)S(C)(=O)=O)nn2)[C@H](OC(C)=O)[C@@H]1OC(C)=O`, the concentration for half-maximal inhibition (IC50) in the data set on RCC4 [1] amounted to 180 µM; in the data set on MDA-MB-231 [2] it was 250 µM.
Regarding `COc1cccc(N(Cc2cn([C@@H]3O[C@H](COC(C)=O)[C@@H](OC(C)=O)[C@H]3OC(C)=O)nn2)S(C)(=O)=O)c1`, the IC50 in the data set with RCC4 [1] turned out to be 190 µM; in the data set on MDA-MB-231 [2], 160 µM.
On to `CCS(=O)(=O)N(Cc1cn([C@@H]2O[C@H](COC(C)=O)[C@@H](OC(C)=O)[C@H](OC(C)=O)[C@H]2OC(C)=O)nn1)c1ccccc1`, for which the IC50 was found to be 175 µM in the data set on RCC4 [1] and 155 µM in the data set with MDA-MB-231 [2].
With `CC(=O)OC[C@H]1O[C@@H](n2cc(CN(c3ccc(Cl)cc3)S(=O)(=O)c3ccccc3)nn2)[C@H](OC(C)=O)[C@@H](OC(C)=O)[C@@H]1OC(C)=O`, the half-maximal inhibitory concentration (IC50) was determined as 115 µM in the data set with RCC4 [1] and 135 µM with MDA-MB-231 [2].
Consider `CC(=O)OC[C@H]1O[C@@H](n2cc(CN(c3ccc(C#N)cc3)S(C)(=O)=O)nn2)[C@H](OC(C)=O)[C@@H](OC(C)=O)[C@@H]1OC(C)=O`, for which the concentration for half-maximal inhibition (IC50) in the data set on RCC4 [1] is 120 µM; in the data set on MDA-MB-231 [2], 215 µM.
In the same order, the values of `CC(=O)OC[C@H]1O[C@@H](n2cc(CN(c3ccc(C#N)cc3)S(C)(=O)=O)nn2)[C@H](OC(C)=O)[C@@H](OC(C)=O)[C@@H]1O[C@H]1O[C@H](COC(C)=O)[C@@H](OC(C)=O)[C@H](OC(C)=O)[C@H]1OC(C)=O` are 230 µM and 230 µM.
For `CC(=O)OC[C@H]1O[C@@H](n2cc(CN(c3ccc(C#N)cc3)S(C)(=O)=O)nn2)[C@H](OC(C)=O)[C@@H](OC(C)=O)[C@H]1OC(C)=O`, in that order: 170 µM and 100 µM.
For `CS(=O)(=O)N(Cc1cn([C@@H]2O[C@H](CO)[C@@H](O)[C@H](O)[C@H]2O)nn1)c1ccc(C#N)cc1`, in that order: 200 µM and 185 µM.
On to `CCS(=O)(=O)N(Cc1cn([C@H]2O[C@H](CO)[C@@H](O[C@@H]3O[C@H](CO)[C@H](O)[C@H](O)[C@H]3O)[C@H](O)[C@H]2O)nn1)c1ccc(Cl)cc1`, for which the concentration for half-maximal inhibition (IC50) in the data set on RCC4 [1] was found to be 200 µM; in the data set on MDA-MB-231 [2], 215 µM.
In the same order, the values of `CCS(=O)(=O)N(Cc1cn([C@H]2O[C@H](COC(C)=O)[C@@H](O[C@@H]3O[C@H](COC(C)=O)[C@H](OC(C)=O)[C@H](OC(C)=O)[C@H]3OC(C)=O)[C@H](OC(C)=O)[C@H]2OC(C)=O)nn1)c1ccc(Cl)cc1` are 160 µM and 150 µM.
In the case of `CC(=O)OC[C@H]1O[C@@H](n2cc(CN(c3ccccc3)S(=O)(=O)c3ccccc3)nn2)[C@H](OC(C)=O)[C@@H]1OC(C)=O`, the IC50 in the data set with RCC4 [1] is 150 µM; in the data set with MDA-MB-231 [2], 100 µM.
On to `CC(=O)OC[C@H]1O[C@@H](n2cc(CN(c3ccc(C#N)cc3)S(C)(=O)=O)nn2)[C@H](OC(C)=O)[C@@H]1OC(C)=O`, for which the IC50 turned out to be 235 µM in the data set on RCC4 [1] and 100 µM in the data set on MDA-MB-231 [2].
Take `CCCCCCCCCCCCCCCCN(Cc1cn([C@@H]2O[C@H](COC(C)=O)[C@@H](OC(C)=O)[C@H]2OC(C)=O)nn1)S(C)(=O)=O`: the half-maximal inhibitory concentration (IC50) in the data set on RCC4 [1] amounted to 13 µM; with MDA-MB-231 [2], 15 µM. In addition, the “Ratio IC50” value in data set [3] is given as 19; in the data set on MDA-MB-231 [4] it was 66. In addition, the outcome with RCC4 [5], with MDA-MB-231 [6], in the data set with RCC4 [7], in the data set with RCC4 [8] and with RCC4 [9] was Active. The solubility entry in [10] is “Soluble”. In addition, the outcome in data set [11] was inactive.
Consider `COc1cccc(N(Cc2cn([C@@H]3O[C@H](COC(C)=O)[C@@H](OC(C)=O)[C@H](OC(C)=O)[C@H]3OC(C)=O)nn2)S(C)(=O)=O)c1`, for which the IC50 was 200 µM in the data set with RCC4 [1] and 220 µM in the data set with MDA-MB-231 [2].
In the same order, the values of `COC(=O)C(C)(C)N(Cc1cn([C@@H]2O[C@H](COC(C)=O)[C@@H](OC(C)=O)[C@H](OC(C)=O)[C@H]2OC(C)=O)nn1)S(C)(=O)=O` are 240 µM and 225 µM.
For `CC(=O)OC[C@H]1O[C@@H](n2cc(CN(c3ccc(C#N)cc3)S(C)(=O)=O)nn2)[C@@H](OC(C)=O)[C@@H](OC(C)=O)[C@@H]1OC(C)=O`, in that order: 240 µM and 230 µM.
`CCCCN(Cc1cn([C@@H]2O[C@H](COC(C)=O)[C@@H](OC(C)=O)[C@H]2OC(C)=O)nn1)S(C)(=O)=O`: the IC50 worked out at 250 µM with RCC4 [1] and 225 µM with MDA-MB-231 [2]. The solubility entry in data set [10] is on record as “Soluble”. In addition, the outcome in data set [11] was inactive.
On to `CCCCCCN(Cc1cn([C@@H]2O[C@H](COC(C)=O)[C@@H](OC(C)=O)[C@H]2OC(C)=O)nn1)S(C)(=O)=O`, for which the IC50 in the data set on RCC4 [1] is 140 µM; in the data set on MDA-MB-231 [2] it was 225 µM. Also, the solubility entry in data set [10] is listed as “Soluble”. Besides, the outcome in data set [11] was inactive.
Regarding `CC(=O)OC[C@H]1O[C@@H](n2cc(CN(c3ccc(C)cc3)S(=O)(=O)c3ccccc3)nn2)[C@H](OC(C)=O)[C@@H]1OC(C)=O`, the concentration for half-maximal inhibition (IC50) in the data set on RCC4 [1] stood at 230 µM; with MDA-MB-231 [2], 205 µM.
For `CC(=O)OC[C@H]1O[C@@H](n2cc(CN(c3ccc(Cl)cc3)S(=O)(=O)c3ccccc3)nn2)[C@H](OC(C)=O)[C@@H]1OC(C)=O`, in that order: 250 µM and 250 µM.
In the case of `CCCCCCCCCCCCCCN(Cc1cn([C@@H]2O[C@H](COC(C)=O)[C@@H](OC(C)=O)[C@H]2OC(C)=O)nn1)S(C)(=O)=O`, the IC50 in the data set with RCC4 [1] was 29 µM; in the data set with MDA-MB-231 [2] it was 31 µM. In addition, in data set [10], the solubility result is given as “Soluble”. Further, in data set [11], the outcome was inactive.
As to `NC(=O)c1ncn([C@@H]2O[C@H](CO)[C@@H](O)[C@H]2O)c1N` [ACADESINE], the IC50 in the data set with RCC4 [1] was found to be 250 µM; with MDA-MB-231 [2], 1000 µM. The result in the data set on RCC4 [12] was Active.
For the compound `CS(=O)(=O)N(Cc1cn([C@H]2O[C@H](CO)[C@@H](O[C@@H]3O[C@H](CO)[C@H](O)[C@H](O)[C@H]3O)[C@H](O)[C@H]2O)nn1)c1ccc(C#N)cc1`, the IC50 with RCC4 [1] amounted to 120 µM; with MDA-MB-231 [2], 250 µM.
For `COC(=O)CN(Cc1cn([C@@H]2O[C@H](COC(C)=O)[C@@H](OC(C)=O)[C@H]2OC(C)=O)nn1)S(C)(=O)=O`, in that order: 125 µM and 250 µM.
In the same order, the values of `CCS(=O)(=O)N(Cc1cn([C@@H]2O[C@H](COC(C)=O)[C@@H](OC(C)=O)[C@H]2OC(C)=O)nn1)c1ccc(Cl)cc1` are 250 µM and 250 µM.
Take `COC(=O)CN(Cc1cn([C@@H]2O[C@H](COC(C)=O)[C@@H](OC(C)=O)[C@H](OC(C)=O)[C@H]2OC(C)=O)nn1)S(C)(=O)=O`: the half-maximal inhibitory concentration (IC50) in the data set with RCC4 [1] and in the data set on MDA-MB-231 [2] was greater than 250 µM throughout.
Take `CCS(=O)(=O)N(Cc1cn([C@@H]2O[C@H](COC(C)=O)[C@@H](OC(C)=O)[C@H](OC(C)=O)[C@H]2OC(C)=O)nn1)c1ccc(Cl)cc1`: the IC50 with RCC4 [1] and in the data set with MDA-MB-231 [2] was greater than 250 µM each time.
